Assay results from patent publication US11247980B2, “Herbicidal uracilpyrid” (BASF SE, priority 2017, dated 2022).

Tests used:
[1] = tested on: sensitive (w.1); assay: greenhouse experiment, control of resistant weeds: sensitive biotype; assay type: in vivo; details: for weed control (%) w.1: AMATA Amaranthus tamariscinus, sensitive biotype; for activity on sensitive weeds (w.1): greenhouse, scale from 0 to 100
Text: (§1) The culture containers used were plastic flowerpots containing loamy sand with approximately 3.0% of humus as the substrate. The seeds of the test plants were sown separately for each species and/or resistant biotype. For the pre-emergence treatment, the active ingredients, which had been suspended or emulsified in water, were applied directly after sowing by means of finely distributing nozzles. The containers were irrigated gently to promote germination and growth and subsequently covered with transparent plastic hoods until the plants had rooted. This cover caused uniform germination of the test plants, unless this had been impaired by the active ingredients. For the post-emergence treatment, the test plants were first grown to a height of 3 to 15 cm, depending on the plant habit, and only then treated with the active ingredients which had been suspended or emulsified in water. For this purpose, the test plants were either sown directly and grown in the same containers, or they were first grown separately as seedlings and transplanted into the test containers a few days prior to treatment. Depending on the species, the plants were kept at 10-25° C. or 20-35° C., respectively. The test period extended over 2 to 4 weeks. During this time, the plants were tended, and their response to the individual treatments was evaluated. The evaluation was carried out by using a scale from 0 to 100. 100 means no emergence of the plants or complete destruction of at least the above-ground parts, and 0 means no damage, or normal course of growth.
(§2) The plants used in the greenhouse experiments were of the following species and biotype: […]

[2] = tested on: resistant weeds containing the ΔG210 mutation (w.3); assay: greenhouse experiment, control of resistant weeds: resistant biotype; assay type: in vivo; details: for weed control (%) w.3: AMATA Amaranthus tamariscinus, PPO resistant biotype 2 (ΔG210 mutation); for activity on resistant weeds containing the ΔG210 mutation (w.3): greenhouse, scale from 0 to 100
Text: as §1, §2

[3] = tested on: resistant weeds containing the ΔG210 mutation (w.2); assay: as above; assay type: in vivo; details: for weed control (%) w.2: AMATA Amaranthus tamariscinus, PPO resistant biotype 1 (ΔG210 mutation); for activity on resistant weeds containing the ΔG210 mutation (w.2): greenhouse, scale from 0 to 100
Text: as §1, §2

[4] = tested on: MATCH; assay: greenhouse experiments, herbicidal activity, post-emergence treatment; assay type: in vivo, Matricaria chamomilla; details: application rate 8 g/ha, scale 0 to 100
Text: (§3) The culture containers used were plastic flowerpots containing loamy sand with approximately 3.0% of humus as the substrate. The seeds of the test plants were sown separately for each species.
(§4) For the pre-emergence treatment, the active ingredients, which had been suspended or emulsified in water, were applied directly after sowing by means of finely distributing nozzles. The containers were irrigated gently to promote germination and growth and subsequently covered with transparent plastic hoods until the plants had rooted. This cover caused uniform germination of the test plants, unless this had been impaired by the active ingredients. For the post-emergence treatment, the test plants were first grown to a height of 3 to 15 cm, depending on the plant habit, and only then treated with the active ingredients which had been suspended or emulsified in water. For this purpose, the test plants were either sown directly and grown in the same containers, or they were first grown separately as seedlings and transplanted into the test containers a few days prior to treatment.
(§5) Depending on the species, the plants were kept at 10-25° C. or 20-35° C., respectively. The test period extended over 2 to 4 weeks. During this time, the plants were tended, and their response to the individual treatments was evaluated.
(§6) Evaluation was carried out using a scale from 0 to 100. […]

[5] = tested on: LOLMU; assay: as above; assay type: in vivo, Lolium multiflorum; details: application rate 8 g/ha, scale 0 to 100
Text: as §3, §4, §5, §6

[6] = tested on: BRADC; assay: as above; assay type: in vivo, Brachiaria decumbens; details: application rate 2 g/ha, scale 0 to 100
Text: as §3, §4, §5, §6

[7] = tested on: ALOMY; assay: as above; assay type: in vivo, Alopecurus myosuroides; details: application rate 8 g/ha, scale 0 to 100
Text: as §3, §4, §5, §6

[8] = tested on: ZEAMX; assay: greenhouse experiments, post-emergence treatment, crop compatibility; assay type: in vivo, Zea mays; details: crop plants ZEAMX, application rate 2 g/ha, scale 0 to 100
Text: as §3, §4, §5, §6

[9] = tested on: CHEAL; assay: greenhouse experiments, herbicidal activity, post-emergence treatment; assay type: in vivo, Chenopodium album; details: application rate 1 g/ha, scale 0 to 100
Text: as §3, §4, §5, §6

| Structure (SMILES) | weed control (%) w.1 ([1]; use rate 2 g/ha) | weed control (%) w.1 ([1]; use rate 4 g/ha) | activity on sensitive weeds (w.1) [1] | weed control (%) w.3 ([2]; use rate 2 g/ha) | weed control (%) w.3 ([2]; use rate 4 g/ha) | activity on resistant weeds containing the ΔG210 mutation (w.3) [2] | weed control (%) w.2 ([3]; use rate 2 g/ha) | weed control (%) w.2 ([3]; use rate 4 g/ha) | activity on resistant weeds containing the ΔG210 mutation (w.2) [3] | damages [4] | damages [5] | damages [6] | damages [7] | damages [8] | damages [9] |
| --- | --- | --- | --- | --- | --- | --- | --- | --- | --- | --- | --- | --- | --- | --- | --- |
| CCOC(=O)COc1ccccc1Oc1nc(-n2c(=O)cc(C(F)(F)F)n(C)c2=O)c(F)cc1Cl [compound 1, Ethyl 2-[2-[[3-chloro-5-fluoro-6-[3-methyl-2,6-dioxo-4-(trifluoromethyl)pyrimidin-1-yl]-2-pyridyl]oxy]phenoxy]acetate] | 88% | 100% | very good activity | 98% | 100% | very good activity | 87% | 100% | very good activity |  |  |  |  |  |  |
| COC(=O)C(OC)Oc1ccccc1Oc1nc(-n2c(=O)cc(C(F)(F)F)n(C)c2=O)c(F)cc1Cl (centres unmarked) [compound 2, Methyl 2-[2-[[3-chloro-5-fluoro-6-[3-methyl-2,6-dioxo-4-(trifluoromethyl)pyrimidin-1-yl]-2-pyridyl]oxy]phenoxy]-2-methoxy-acetate] |  |  |  |  |  |  |  |  |  | 70 | 70 | 80 | 70 | 25 | 90 |
| C#CCOc1cc(-n2nc3n(c2=O)CCCC3)c(Cl)cc1Cl [azafenidin, reference compound] | 88% | 100% |  | 77% | 77% | much weaker control of resistant in comparison to sensitive biotypes | 62% | 78% | much weaker control of resistant in comparison to sensitive biotypes |  |  |  |  |  |  |
| CCOC(=O)COc1ncccc1Oc1nc(-n2c(=O)cc(C(F)(F)F)n(C)c2=O)c(F)cc1Cl [compound 7, Ethyl 2-[[3-[[3-chloro-5-fluoro-6-[3-methyl-2,6-dioxo-4-(trifluoromethyl)pyrimidin-1-yl]-2-pyridyl]oxy]-2-pyridyl]oxy]acetate] | 93% | 100% | very good activity | 100% | 100% | very good activity | 100% | 100% | very good activity |  |  |  |  |  |  |
